Where two headings read alike, the source gives them in different places.
Key:
Staphylococcus aureus [1] = assay: Control: microbicidal activity of the amino acid or analogue alone (no glucose, MPO, glucose oxidase) in the presence of blood; assay type: cell-based; settings: for log reduction at 5000 µM: Staphylococcus aureus, 1 h, read-out: Log Reduction 60 min
Excerpt: As a control to determine the microbicidal activity of the amino acids alone, the foregoing procedure was followed without replication, except in the absence of glucose, MPO, and glucose oxidase.

Staphylococcus aureus [2] = assay: Microbicidal activity of the myeloperoxidase system (p-MPO, glucose oxidase, glucose) with amino acids in the presence of blood, CFU plate counts; synergy determination from these CFU; assay type: cell-based; settings: for Average Viability CFU/ml 50 min / Log Reduction 50 min: MPO 4.7 U/ml, GO 4.2 U/ml
Procedure, shortened: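 Staphylococcus aureus grown 24 hours in TSB at 35° C was washed in saline and added at a final 2-3×10^7 CFU per mL. The bacteria were mixed in 1 mL reactions with porcine myeloperoxidase, glucose oxidase, amino acids, 150 mM sodium chloride and 3% venous whole blood. Adding glucose to 150 mM started killing. After catalase addition, survivors were counted by serial dilution plating on TSA at 37° C for 24 hours.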

[3] = amino acid alone 5 mM, MPO 0, GO 0, no glucose, blood, without replication
[4] = L-lysine 5 mM, MPO 9 U/ml, GO 0.833 U/ml, 3% blood
[5] = L-lysine 5 mM, MPO 9 U/ml, GO 8.33 U/ml, 3% blood
[6] = L-lysine 5 mM, MPO 38 U/ml, GO 3.3 U/ml, 3% blood
[7] = L-lysine 5 mM, MPO 38 U/ml, GO 33.3 U/ml, 3% blood
[8] = L-lysine 20 mM, MPO 38 U/ml, GO 3.3 U/ml, 3% blood
[9] = L-lysine 20 mM, MPO 38 U/ml, GO 33.3 U/ml, 3% blood
[10] = L-lysine […], MPO 9 U/ml, GO 0.833 U/ml, 3% blood
[11] = L-lysine […], MPO 9 U/ml, GO 8.33 U/ml, 3% blood
[12] = MPO 100 μg/mL, AA 20 mM, 30 min
[13] = MPO 100 μg/mL, AA 20 mM, 60 min
[14] = Table 2, amino acid 5 mM (none: 0 mM), MPO 38 U/ml, GO 33.3 U/ml, blood
[15] = Table 10, single amino acid 2.5 mM, in the presence of blood
[16] = Table 11, single amino acid 2.5 mM, in the presence of blood
[17] = Table 13, single amino acid 2.5 mM, in the presence of blood
[18] = Table 14, single amino acid 2.5 mM, in the presence of blood
[19] = amino acid analogue alone 5 mM, MPO 0, GO 0, no glucose, blood
[20] = Table 7, amino acid analogue 5 mM, MPO 38 U/ml, GO 33.3 U/ml, blood

NCCCC[C@H](N)C(=O)O [L-Lysine]
log reduction at 5000 µM (Staphylococcus aureus [1]): 0 | Average Viability CFU/ml 60 min (Staphylococcus aureus [1]; [3]): 21400000 CFU/ml | Average Viability CFU/ml 30 min (Staphylococcus aureus [2]; [4]): 775000 CFU/ml | Average Viability CFU/ml 60 min (Staphylococcus aureus [2]; [4]): 53000 CFU/ml | Log Reduction 30 min (Staphylococcus aureus [2]; [4]): 1.5 | Log Reduction 60 min (Staphylococcus aureus [2]; [4]): 2.7 | Average Viability CFU/ml 30 min (Staphylococcus aureus [2]; [5]): 675000 CFU/ml | Average Viability CFU/ml 60 min (Staphylococcus aureus [2]; [5]): 47 CFU/ml | Log Reduction 30 min (Staphylococcus aureus [2]; [5]): 1.6 | Log Reduction 60 min (Staphylococcus aureus [2]; [5]): 5.7 | Average Viability CFU/ml 30 min (Staphylococcus aureus [2]; [6]): 6050 CFU/ml | Average Viability CFU/ml 60 min (Staphylococcus aureus [2]; [6]): 770 CFU/ml | Log Reduction 30 min (Staphylococcus aureus [2]; [6]): 3.6 | Log Reduction 60 min (Staphylococcus aureus [2]; [6]): 4.5 | Average Viability CFU/ml 30 min (Staphylococcus aureus [2]; [7]): 7 CFU/ml | Average Viability CFU/ml 60 min (Staphylococcus aureus [2]; [7]): 3 CFU/ml | Log Reduction 30 min (Staphylococcus aureus [2]; [7]): 6.5 | Log Reduction 60 min (Staphylococcus aureus [2]; [7]): 6.8 | Average Viability CFU/ml 30 min (Staphylococcus aureus [2]; [8]): 6450 CFU/ml | Average Viability CFU/ml 60 min (Staphylococcus aureus [2]; [8]): 620 CFU/ml | Log Reduction 30 min (Staphylococcus aureus [2]; [8]): 3.6 | Log Reduction 60 min (Staphylococcus aureus [2]; [8]): 4.6 | Average Viability CFU/ml 30 min (Staphylococcus aureus [2]; [9]): 5 CFU/ml | Average Viability CFU/ml 60 min (Staphylococcus aureus [2]; [9]): 5 CFU/ml | Log Reduction 30 min (Staphylococcus aureus [2]; [9]): 6.6 | Log Reduction 60 min (Staphylococcus aureus [2]; [9]): 6.6 | Average Viability CFU/ml 30 min (Staphylococcus aureus [2]; [10]): 5050000 CFU/ml | Average Viability CFU/ml 60 min (Staphylococcus aureus [2]; [10]): 620000 CFU/ml | Log Reduction 30 min (Staphylococcus aureus [2]; [10]): 0.7 | Log Reduction 60 min (Staphylococcus aureus [2]; [10]): 1.6 | Average Viability CFU/ml 30 min (Staphylococcus aureus [2]; [11]): 6200000 CFU/ml | Average Viability CFU/ml 60 min (Staphylococcus aureus [2]; [11]): 4950 CFU/ml | Log Reduction 30 min (Staphylococcus aureus [2]; [11]): 0.6 | Log Reduction 60 min (Staphylococcus aureus [2]; [11]): 3.7 | Log 10 (CFU + 1) Survivors (Staphylococcus aureus [2]; MPO 25 μg/mL, AA 5 mM, 30 min): 5.8 | Log 10 (CFU + 1) Survivors (Staphylococcus aureus [2]; MPO 25 μg/mL, AA 5 mM, 60 min): 1.6 | Log 10 (CFU + 1) Survivors (Staphylococcus aureus [2]; MPO 25 μg/mL, AA […], 30 min): 6.8 | Log 10 (CFU + 1) Survivors (Staphylococcus aureus [2]; MPO 25 μg/mL, AA […], 60 min): 3.7 | Log 10 (CFU + 1) Survivors (Staphylococcus aureus [2]; MPO 100 μg/mL, AA 5 mM, 30 min): 0.9 | Log 10 (CFU + 1) Survivors (Staphylococcus aureus [2]; MPO 100 μg/mL, AA 5 mM, 60 min): 0.5 | Log 10 (CFU + 1) Survivors (Staphylococcus aureus [2]; [12]): 0.8 | Log 10 (CFU + 1) Survivors (Staphylococcus aureus [2]; [13]): 0.8 | Average Viability CFU/ml 60 min (Staphylococcus aureus [2]; [14]): 0 CFU/ml | Log 10 (CFU + 1) Survivors 60 min (Staphylococcus aureus [2]; [14]): 0.0 | Log Reduction 60 min (Staphylococcus aureus [2]; [14]): 7.4 | Average Viability CFU/ml 50 min (Staphylococcus aureus [2]; [15]): 16200000 CFU/ml | Log Reduction 50 min (Staphylococcus aureus [2]; [15]): 0.2 | Average Viability CFU/ml 50 min (Staphylococcus aureus [2]; [16]): 18900000 CFU/ml | Log Reduction 50 min (Staphylococcus aureus [2]; [16]): 0.2 | Average Viability CFU/ml 50 min (Staphylococcus aureus [2]; [17]): 11400000 CFU/ml | Log Reduction 50 min (Staphylococcus aureus [2]; [17]): 0.3 | Average Viability CFU/ml 50 min (Staphylococcus aureus [2]; [18]): 16950000 CFU/ml | Log Reduction 50 min (Staphylococcus aureus [2]; [18]): 0.2

CSCC[C@H](N)C(=O)O [L-Methionine]
log reduction at 5000 µM (Staphylococcus aureus [1]; [3]): 0.1 | Average Viability CFU/ml 60 min (Staphylococcus aureus [1]; [3]): 19800000 CFU/ml | Average Viability CFU/ml 60 min (Staphylococcus aureus [2]; [14]): 6600000 CFU/ml | Log 10 (CFU + 1) Survivors 60 min (Staphylococcus aureus [2]; [14]): 6.8 | Log Reduction 60 min (Staphylococcus aureus [2]; [14]): 0.6

N[C@@H](Cc1ccccc1)C(=O)O [L-Phenylalanine]
log reduction at 5000 µM (Staphylococcus aureus [1]; [3]): 0 | Average Viability CFU/ml 60 min (Staphylococcus aureus [1]; [3]): 22400000 CFU/ml | Log 10 (CFU + 1) Survivors (Staphylococcus aureus [2]; MPO 25 μg/mL, AA 5 mM, 30 min): 7.1 | Log 10 (CFU + 1) Survivors (Staphylococcus aureus [2]; MPO 25 μg/mL, AA 5 mM, 60 min): 0.0 | Log 10 (CFU + 1) Survivors (Staphylococcus aureus [2]; MPO 25 μg/mL, AA […], 30 min): 7.0 | Log 10 (CFU + 1) Survivors (Staphylococcus aureus [2]; MPO 25 μg/mL, AA […], 60 min): 4.9 | Log 10 (CFU + 1) Survivors (Staphylococcus aureus [2]; MPO 100 μg/mL, AA 5 mM, 30 min): 0.0 | Log 10 (CFU + 1) Survivors (Staphylococcus aureus [2]; MPO 100 μg/mL, AA 5 mM, 60 min): 0.0 | Log 10 (CFU + 1) Survivors (Staphylococcus aureus [2]; [12]): 0.0 | Log 10 (CFU + 1) Survivors (Staphylococcus aureus [2]; [13]): 0.0 | Average Viability CFU/ml 60 min (Staphylococcus aureus [2]; [14]): 0 CFU/ml | Log 10 (CFU + 1) Survivors 60 min (Staphylococcus aureus [2]; [14]): 0.0 | Log Reduction 60 min (Staphylococcus aureus [2]; [14]): 7.4 | Average Viability CFU/ml 50 min (Staphylococcus aureus [2]; [15]): 10550000 CFU/ml | Log Reduction 50 min (Staphylococcus aureus [2]; [15]): 0.4 | Average Viability CFU/ml 50 min (Staphylococcus aureus [2]; [16]): 11100000 CFU/ml | Log Reduction 50 min (Staphylococcus aureus [2]; [16]): 0.4 | Average Viability CFU/ml 50 min (Staphylococcus aureus [2]; [18]): 12050000 CFU/ml | Log Reduction 50 min (Staphylococcus aureus [2]; [18]): 0.3 | Average Viability CFU/ml 50 min (Staphylococcus aureus [2]; Table 19, amino acid 3.5 mM): 11200000 CFU/ml | Log Reduction 50 min (Staphylococcus aureus [2]; Table 19, amino acid 3.5 mM): 0.4

COC(=O)[C@@H]1CCCN1.Cl [L-Proline methyl ester hydrochloride]
log reduction at 5000 µM (Staphylococcus aureus [1]; [19]): 0 | Average Viability CFU/ml 60 min (Staphylococcus aureus [1]; [19]): 23200000 CFU/ml | Average Viability CFU/ml 60 min (Staphylococcus aureus [2]; [20]): 0 CFU/ml | Log Reduction 60 min (Staphylococcus aureus [2]; [20]): 7.4

O=C(O)[C@@H]1CCCN1 [L-Proline]
log reduction at 5000 µM (Staphylococcus aureus [1]; [3]): 0 | Average Viability CFU/ml 60 min (Staphylococcus aureus [1]; [3]): 21600000 CFU/ml | Log 10 (CFU + 1) Survivors (Staphylococcus aureus [2]; MPO 25 μg/mL, AA 5 mM, 30 min): 7.1 | Log 10 (CFU + 1) Survivors (Staphylococcus aureus [2]; MPO 25 μg/mL, AA 5 mM, 60 min): 3.9 | Log 10 (CFU + 1) Survivors (Staphylococcus aureus [2]; MPO 25 μg/mL, AA […], 30 min): 7.0 | Log 10 (CFU + 1) Survivors (Staphylococcus aureus [2]; MPO 25 μg/mL, AA […], 60 min): 6.8 | Log 10 (CFU + 1) Survivors (Staphylococcus aureus [2]; MPO 100 μg/mL, AA 5 mM, 30 min): 4.9 | Log 10 (CFU + 1) Survivors (Staphylococcus aureus [2]; MPO 100 μg/mL, AA 5 mM, 60 min): 0.0 | Log 10 (CFU + 1) Survivors (Staphylococcus aureus [2]; [12]): 5.8 | Log 10 (CFU + 1) Survivors (Staphylococcus aureus [2]; [13]): 0.0 | Average Viability CFU/ml 60 min (Staphylococcus aureus [2]; [14]): 4850 CFU/ml | Log 10 (CFU + 1) Survivors 60 min (Staphylococcus aureus [2]; [14]): 3.7 | Log Reduction 60 min (Staphylococcus aureus [2]; [14]): 3.7 | Average Viability CFU/ml 50 min (Staphylococcus aureus [2]; [15]): 1235000 CFU/ml | Log Reduction 50 min (Staphylococcus aureus [2]; [15]): 1.3 | Average Viability CFU/ml 50 min (Staphylococcus aureus [2]; [17]): 1500000 CFU/ml | Log Reduction 50 min (Staphylococcus aureus [2]; [17]): 1.2 | Average Viability CFU/ml 50 min (Staphylococcus aureus [2]; [18]): 1835000 CFU/ml | Log Reduction 50 min (Staphylococcus aureus [2]; [18]): 1.2

— US8945540B2, “Compositions for enhancing the antibacterial activity of myeloperoxidase and methods of use thereof” (Exoxemis, Inc., priority 2008, dated 2015)
